Measured values from PMC8981238, “C-type cytochrome-initiated reduction of bacterial lytic polysaccharide monooxygenases” (Biochemical Journal, 2021).

Molecular target: T1, CfAA10 (Cellulomonas fimi, UniProt F4H6A3)
T1 construct: gene Celf_0270; apparently with its C-terminal CBM (truncation told only for the C. japonicus enzyme)
Test: Amplex Red / horseradish peroxidase coupled H2O2 production, initial rates
Format: biochemical
Conditions: reductant varied, no polysaccharide, O2 from air, 50 mM sodium phosphate pH 6.0, room temperature, 2 µM LPMO

T1 sequence (F4H6A3 entry or part of it): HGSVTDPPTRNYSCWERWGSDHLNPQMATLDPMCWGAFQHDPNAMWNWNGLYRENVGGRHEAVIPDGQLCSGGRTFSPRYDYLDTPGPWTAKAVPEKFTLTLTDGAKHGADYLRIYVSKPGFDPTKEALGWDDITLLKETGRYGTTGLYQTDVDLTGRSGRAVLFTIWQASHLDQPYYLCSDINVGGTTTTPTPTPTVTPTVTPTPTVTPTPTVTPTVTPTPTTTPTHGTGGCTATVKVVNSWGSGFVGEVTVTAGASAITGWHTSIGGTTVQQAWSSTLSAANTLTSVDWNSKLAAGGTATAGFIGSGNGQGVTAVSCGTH

O=C1O[C@H]([C@@H](O)CO)C(O)=C1O [ascorbate]
KM: KM is consistently lower when CjX183 is used as the reductant compared with ascorbate
